Measurements reported in patent US5294618A, “Octahydrobenzisoquinoline derivatives as antipsychotic agents” (Merck Sharp & Dohme Limited, priority 1989, dated 1994).

Assays:
sigma sites = target: T1, sigma sites (Mus musculus, UniProt O55242); test: Displacement of tritiated (+)-SKF 10047 sigma ligand in vivo; settings: sc, s.c. dosing, read-out: effective dose for displacing 50% of ligand (ED50)
T1 construct: displace tritiated sigma ligands in vivo; from tissue; host or cells: sites in the living animal after s.c. dosing
Experimental: The ability of the test compounds to displace tritiated sigma ligands in vivo was determined by a modification of the method of Ferris et al., Life Sci., 1986, 38, 2329. In these experiments the sigma ligand used was tritiated (+)-SKF 10047.

[1] = Indian J. Chem., Sect. B, 1979, 17, 239; cited from earlier work
[2] = tested on: N-methyl-D-aspartate (NMDA) ion-channel complex; settings: cited from earlier work
sigma recognition site = settings: cited from earlier work
dopamine D2 receptors = settings: cited from earlier work

T1 sequence (O55242 whole entry): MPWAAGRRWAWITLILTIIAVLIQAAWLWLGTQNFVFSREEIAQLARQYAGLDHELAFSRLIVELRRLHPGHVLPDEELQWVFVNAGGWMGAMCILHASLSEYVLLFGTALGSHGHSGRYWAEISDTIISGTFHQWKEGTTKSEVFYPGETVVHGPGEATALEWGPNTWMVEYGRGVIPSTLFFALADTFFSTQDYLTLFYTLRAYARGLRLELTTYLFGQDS

CCCCN1CC[C@H]2c3ccccc3CC[C@@H]2C1 (relative stereo) [Example 2, trans-3-Butyl-1,2,3,4,4a,5,6,10b-octahydrobenz[f]isoquinoline]
ED50 (sigma sites): < 1 mg/kg

c1ccc2c(c1)CC[C@@H]1CN(C3CCCCC3)CC[C@@H]21 (relative stereo) [Example 4, trans-3-Cyclohexyl-1,2,3,4,4a,5,6,10b-octahydrobenz[f]isoquinoline]
ED50 (sigma sites): < 1 mg/kg

O=C(CCCN1CCC2c3ccccc3CCC2C1)c1ccc(F)cc1 (stereo not drawn) [3-[3-(4-fluorobenzoyl)propyl]-1,2,3,4,4a,5,6,10b-octahydrobenz[f]isoquinoline]
CNS depressant activity [1]: weak CNS depressant activity
hypotensive activity [1]: significant hypotensive activity

C=CCN1CCC2(C)c3cc(O)ccc3CC1C2C (stereo not drawn) [N-allylnormetazocine (SKF 10047), N-allylnormetazocine]
interaction with NMDA ion-channel complex [2]: interacts strongly
potency/affinity at sigma sites (sigma recognition site): having an affinity

O=C(CCCN1CCC(O)(c2ccc(Cl)cc2)CC1)c1ccc(F)cc1 [haloperidol]
relative potency at sigma sites versus D2 receptors (sigma recognition site; sigma sites and D2 receptors): equally potently

C[C@@H]1CN(CCCn2c3ccccc3c3ccccc32)C[C@H](C)N1 [rimcazole]
potency/affinity at sigma sites (sigma recognition site): only moderate potency
activity at dopamine D2 receptors (dopamine D2 receptors): essentially inactive
